# Experimental data published in patent US9156796B2, “Benzoimidazole-carboxylic acid amide derivatives as APJ receptor modulators” (SANOFI, priority 2013, dated 2015).
# Target: T1, human apelin receptor (Homo sapiens, UniProt P35414)
# T1 construct: expressed in transfected cells
# T1 sequence (P35414 1-380): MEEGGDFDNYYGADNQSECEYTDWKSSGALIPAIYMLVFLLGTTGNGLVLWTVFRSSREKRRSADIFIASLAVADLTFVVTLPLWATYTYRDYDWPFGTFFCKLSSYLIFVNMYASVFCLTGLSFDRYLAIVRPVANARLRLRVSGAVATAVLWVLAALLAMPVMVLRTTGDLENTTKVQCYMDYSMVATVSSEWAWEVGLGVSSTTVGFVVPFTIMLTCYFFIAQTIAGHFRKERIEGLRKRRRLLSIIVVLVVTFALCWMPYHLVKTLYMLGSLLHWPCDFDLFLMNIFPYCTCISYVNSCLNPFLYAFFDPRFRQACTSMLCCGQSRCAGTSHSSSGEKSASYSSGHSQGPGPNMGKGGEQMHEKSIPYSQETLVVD
# Assay: Determination of agonism on the human apelin receptor by a calcium fluorescence assay (FLIPR)
# Type: cell-based
# Settings: HEK293 cells stably transfected with human apelin receptor and Giaq protein, Fluo-4 calcium fluorescence, read-out: EC50 (APJ agonism)
# Outline: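 Agonist EC50s come from peak intracellular calcium transients recorded by FLIPR Tetra, scaled to the 1 μM apelin-13 maximum per plate. Test system: HEK293 stably transfected with human apelin receptor plus Giaq, Fluo-4-loaded (4 μM, 1 h, 37 °C, pH 7.4 buffer with probenecid); ≥7 concentrations, triplicates.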
row,SMILES,EC50
1,"CCC(CC)n1c(Cc2cccs2)nc2cc(C(=O)N[C@@H](CC(C)C)C(=O)NC(C)CCN3CCOCC3)ccc21 (stereo partly drawn) [Example 306, 1-(1-Ethyl-propyl)-2-thiophen-2-ylmethyl-1H-benzoimidazole-5-carboxylic acid [(S)-3-methyl-1-(1-methyl-3-morpholin-4-yl-propylcarbamoyl)-butyl]-amide]",1260 nM
2,"CCC(CC)n1c(Cc2cccs2)nc2cc(C(=O)N[C@@H](CC(C)C)C(=O)NCCC3CCCCN3Cc3ccccc3)ccc21 (stereo partly drawn) [Example 307, 1-(1-Ethyl-propyl)-2-thiophen-2-ylmethyl-1H-benzoimidazole-5-carboxylic acid {(S)-1-[2-(1-benzyl-piperidin-2-yl)-ethylcarbamoyl]-3-methyl-butyl}-amide]",1830 nM
3,"CCC(CC)n1c(Cc2cccs2)nc2cc(C(=O)N[C@@H](CC(C)C)C(=O)NC3CCN(Cc4cccnc4)CC3)ccc21 [Example 308, 1-(1-Ethyl-propyl)-2-thiophen-2-ylmethyl-1H-benzoimidazole-5-carboxylic acid [(S)-3-methyl-1-(1-pyridin-3-ylmethyl-piperidin-4-ylcarbamoyl)-butyl]-amide]",672 nM
4,"CCCN1CCCC(CNC(=O)[C@H](CC(C)C)NC(=O)c2ccc3c(c2)nc(Cc2cccs2)n3C(CC)CC)C1 (stereo partly drawn) [Example 309, 1-(1-Ethyl-propyl)-2-thiophen-2-ylmethyl-1H-benzoimidazole-5-carboxylic acid {(S)-3-methyl-1-[(1-propyl-piperidin-3-ylmethyl)-carbamoyl]-butyl}-amide]",482 nM
5,"CCC(CC)n1c(Cc2cccs2)nc2cc(C(=O)N[C@@H](CC(C)C)C(=O)N3CCC(N(C)CCN(C)C)CC3)ccc21 [Example 310, 1-(1-Ethyl-propyl)-2-thiophen-2-ylmethyl-1H-benzoimidazole-5-carboxylic acid ((S)-1-{4-[(2-dimethylamino-ethyl)-methyl-amino]-piperidine-1-carbonyl}-3-methyl-butyl)-amide]",162 nM
6,"CCC(CC)n1c(Cc2cccs2)nc2cc(C(=O)N[C@@H](CC(C)C)C(=O)N3CCN(Cc4ccc5c(c4)OCO5)CC3)ccc21 [Example 311, 1-(1-Ethyl-propyl)-2-thiophen-2-ylmethyl-1H-benzoimidazole-5-carboxylic acid [(S)-1-(4-benzo[1,3]dioxol-5-ylmethyl-piperazine-1-carbonyl)-3-methyl-butyl]-amide]",21200 nM
7,"CCC(CC)n1c(Cc2cccs2)nc2cc(C(=O)N[C@@H](CC(C)C)C(=O)N3CCN(c4ccccn4)CC3)ccc21 [Example 312, 1-(1-Ethyl-propyl)-2-thiophen-2-ylmethyl-1H-benzoimidazole-5-carboxylic acid [(S)-3-methyl-1-(4-pyridin-2-yl-piperazine-1-carbonyl)-butyl]-amide]",2960 nM
8,"CCC(CC)n1c(Cc2cccs2)nc2cc(C(=O)N[C@@H](CC(C)C)C(=O)NC3CCN(Cc4ccccc4)CC3)ccc21 [Example 313, 1-(1-Ethyl-propyl)-2-thiophen-2-ylmethyl-1H-benzoimidazole-5-carboxylic acid [(S)-1-(1-benzyl-piperidin-4-ylcarbamoyl)-3-methyl-butyl]-amide]",1890 nM
9,"CCC(CC)n1c(Cc2cccs2)nc2cc(C(=O)N[C@@H](CC(C)C)C(=O)NC(C)CCCN(CC)CC)ccc21 (stereo partly drawn) [Example 314, 1-(1-Ethyl-propyl)-2-thiophen-2-ylmethyl-1H-benzoimidazole-5-carboxylic acid [(S)-1-(4-diethylamino-1-methyl-butylcarbamoyl)-3-methyl-butyl]-amide]",474 nM
10,"CCC(CC)n1c(Cc2cccs2)nc2cc(C(=O)N[C@@H](CC(C)C)C(=O)N3CCN(c4ccccc4OC)CC3)ccc21 [Example 315, 1-(1-Ethyl-propyl)-2-thiophen-2-ylmethyl-1H-benzoimidazole-5-carboxylic acid {(S)-1-[4-(2-methoxy-phenyl)-piperazine-1-carbonyl]-3-methyl-butyl}-amide]",2450 nM
11,"CCC(CC)n1c(Cc2cccs2)nc2cc(C(=O)N[C@@H](CC(C)C)C(=O)Nc3cccc(N(C)C)c3)ccc21 [Example 316, 1-(1-Ethyl-propyl)-2-thiophen-2-ylmethyl-1H-benzoimidazole-5-carboxylic acid [(S)-1-(3-dimethylamino-phenylcarbamoyl)-3-methyl-butyl]-amide]",22000 nM
12,"CCC(CC)n1c(Cc2cccs2)nc2cc(C(=O)N[C@@H](CC(C)C)C(=O)NC3CCN(c4ccccc4)CC3)ccc21 [Example 317, 1-(1-Ethyl-propyl)-2-thiophen-2-ylmethyl-1H-benzoimidazole-5-carboxylic acid [(S)-3-methyl-1-(1-phenyl-piperidin-4-ylcarbamoyl)-butyl]-amide]",14000 nM
13,"CCC(CC)n1c(Cc2cccs2)nc2cc(C(=O)N[C@@H](CC(C)C)C(=O)N3CCN(C4CCCCC4)CC3)ccc21 [Example 318, 1-(1-Ethyl-propyl)-2-thiophen-2-ylmethyl-1H-benzoimidazole-5-carboxylic acid [(S)-1-(4-cyclohexyl-piperazine-1-carbonyl)-3-methyl-butyl]-amide]",2860 nM
14,"CCC(CC)n1c(Cc2cccs2)nc2cc(C(=O)N[C@@H](CC(C)C)C(=O)NC3CCN(Cc4ccccc4)C3)ccc21 (stereo partly drawn) [Example 319, 1-(1-Ethyl-propyl)-2-thiophen-2-ylmethyl-1H-benzoimidazole-5-carboxylic acid [(S)-1-(1-benzyl-pyrrolidin-3-ylcarbamoyl)-3-methyl-butyl]-amide]",1520 nM
15,"CCC(CC)n1c(Cc2cccs2)nc2cc(C(=O)N[C@@H](CC(C)C)C(=O)NCCCN3CCC(C)CC3)ccc21 [Example 320, 1-(1-Ethyl-propyl)-2-thiophen-2-ylmethyl-1H-benzoimidazole-5-carboxylic acid {(S)-3-methyl-1-[3-(4-methyl-piperidin-1-yl)-propylcarbamoyl]-butyl}-amide]",386 nM
16,"CCC(CC)n1c(Cc2cccs2)nc2cc(C(=O)N[C@@H](CC(C)C)C(=O)N3CCN(C4CCCC4)CC3)ccc21 [Example 321, 1-(1-Ethyl-propyl)-2-thiophen-2-ylmethyl-1H-benzoimidazole-5-carboxylic acid [(S)-1-(4-cyclopentyl-piperazine-1-carbonyl)-3-methyl-butyl]-amide]",1520 nM
17,"CCC(CC)n1c(Cc2cccs2)nc2cc(C(=O)N[C@@H](CC(C)C)C(=O)N3CC[C@H](N(C)C)C3)ccc21 [Example 322, 1-(1-Ethyl-propyl)-2-thiophen-2-ylmethyl-1H-benzoimidazole-5-carboxylic acid [(S)-1-((S)-3-dimethylamino-pyrrolidine-1-carbonyl)-3-methyl-butyl]-amide]",244 nM
18,"CCC(CC)n1c(Cc2cccs2)nc2cc(C(=O)N[C@@H](CC(C)C)C(=O)N3CCCN(Cc4ccccc4)CC3)ccc21 [Example 323, 1-(1-Ethyl-propyl)-2-thiophen-2-ylmethyl-1H-benzoimidazole-5-carboxylic acid [(S)-1-(4-benzyl-[1,4]diazepane-1-carbonyl)-3-methyl-butyl]-amide]",6740 nM
19,"CCC(CC)n1c(Cc2cccs2)nc2cc(C(=O)N[C@@H](CC(C)C)C(=O)N3CCCN(Cc4ccc(F)cc4)CC3)ccc21 [Example 324, 1-(1-Ethyl-propyl)-2-thiophen-2-ylmethyl-1H-benzoimidazole-5-carboxylic acid {(S)-1-[4-(4-fluoro-benzyl)-[1,4]diazepane-1-carbonyl]-3-methyl-butyl}-amide]",16800 nM
20,"CCC(CC)n1c(Cc2cccs2)nc2cc(C(=O)N[C@@H](CC(C)C)C(=O)N3C[C@H]4C[C@@H]3CN4Cc3ccccc3)ccc21 [Example 325, 1-(1-Ethyl-propyl)-2-thiophen-2-ylmethyl-1H-benzoimidazole-5-carboxylic acid [(S)-1-((1R,4R)-5-benzyl-2,5-diaza-bicyclo[2.2.1]heptane-2-carbonyl)-3-methyl-butyl]-amide]",4410 nM
21,"CCC(CC)n1c(Cc2cccs2)nc2cc(C(=O)N[C@@H](CC(C)C)C(=O)N3CC4CC3CN4c3cccc(F)c3)ccc21 (stereo partly drawn) [Example 326, 1-(1-Ethyl-propyl)-2-thiophen-2-ylmethyl-1H-benzoimidazole-5-carboxylic acid {(S)-1-[5-(3-fluoro-phenyl)-2,5-diaza-bicyclo[2.2.1]heptane-2-carbonyl]-3-methyl-butyl}-amide]",16400 nM
22,"CCC(CC)n1c(Cc2cccs2)nc2cc(C(=O)N[C@@H](CC(C)C)C(=O)NC3CCN(C)CC3)ccc21 [Example 327, 1-(1-Ethyl-propyl)-2-thiophen-2-ylmethyl-1H-benzoimidazole-5-carboxylic acid [(S)-3-methyl-1-(1-methyl-piperidin-4-ylcarbamoyl)-butyl]-amide]",111 nM
23,"CCC(CC)n1c(Cc2cccs2)nc2cc(C(=O)N[C@@H](CC(C)C)C(=O)NC3CCN(CCc4ccc(OC)cc4)CC3)ccc21 [Example 328, 1-(1-Ethyl-propyl)-2-thiophen-2-ylmethyl-1H-benzoimidazole-5-carboxylic acid ((S)-1-{1-[2-(4-methoxy-phenyl)-ethyl]-piperidin-4-ylcarbamoyl}-3-methyl-butyl)-amide]",1270 nM
24,"CCC(CC)n1c(Cc2cccs2)nc2cc(C(=O)N[C@@H](CC(C)C)C(=O)N3CCC(N(CC)CC)C3)ccc21 (stereo partly drawn) [Example 329, 1-(1-Ethyl-propyl)-2-thiophen-2-ylmethyl-1H-benzoimidazole-5-carboxylic acid [(S)-1-(3-diethylamino-pyrrolidine-1-carbonyl)-3-methyl-butyl]-amide]",362 nM
